Assay results taken from patent publication US12161630B2, “Methods to control infection using new generation small molecule growth inhibitors” (priority 2017, dated 2024).
≈ marks a conversion by molar mass, not a printed value.

What was measured:
[1] = tested on: S. typhimurium cell membrane and nucleic acids; assay: Confocal microscopy of SM-challenged S. typhimurium (FM4-64, SYTO9); type: cell-based, Salmonella enterica subsp. Enterica serotype Typhimurium; conditions: 5×MBC of SMs for 3 hrs; compared to DMSO control
Description: FIG. 13. Confocal and scanning electron microscopy (SEM) analyses of Salmonella enterica subsp. Enterica serotype Typhimurium after challenge with five times the minimal bactericidal concentration of small molecules (5×MBC of SMs) for 3 hrs. (A-O) Confocal microscopy: (A-E) S. typhimurium cell membrane stained with FM4-64; (F-J) S. typhimurium nucleic acids stained with SYTO9; (K-O) Merged pictures of the FM4-64 and SYTO9 staining. (P-S) SEM: (P) 1% dimethyl sulfoxide (DMSO) treated Salmonella; (Q) SM1 treated Salmonella; (R) SM4 treated Salmonella; (S) SM5 treated Salmonella; Bar: 1 μm.

Salmonella Javiana = assay: MIC and MBC dose-response, serotype Javiana; type: cell-based, Salmonella enterica; conditions: MIC identical to MBC
Method: (§1) An overnight Salmonella suspension was normalized at 0.05 OD600 (approximately 3.5×10^7 CFU/ml) with an adjusted M9 minimal broth medium (12.7 mM Na2HPO4 7H2O; 22 mM KH2PO4; 18.7 mM NH4Cl; 2 mM MgSO4; 0.1 mM CaCl2; 0.4% glucose; 0.05% casamino acids). 100 μL of the suspension plus 2 μl of SMs (200 μM) were transferred into each well of a sterile, non-treated, flat bottom 96-well plate. Bacteria alone (negative control, NC), 2% DMSO plus bacteria (DMSO control), 20 μg/ml chloramphenicol or 50 μg/ml kanamycin plus bacteria (positive controls, PC), and M9 medium only were used as control. Plates were incubated in a Sunrise™ Tecan kinetic microplate reader for 12 hrs at 37° C. and the optical density (OD) was measure at 600 nm as described above. Percentage of inhibition=(OD600 SM−OD600 NC)/(OD600 NC)×100. […] Cultures from wells showing no turbidimetric increase were transferred onto a XLT4 agar plate. Plates were incubated at 37° C. for 36 hrs.
(§2) Screens were performed as described in the primary screen. The lowest SM concentration with a static effect was considered as the minimal inhibitory concentration (MIC) and the lowest SM concentration with a cidal effect was considered as the minimal bactericidal concentration (MBC).

[2] = tested on: S. typhimurium cell membrane; assay: Leakage of 260 nm-absorbing material after treatment with lethal dose of SMs; type: cell-based; conditions: 1 hr, compared to 1% DMSO control
Method: To further support the observation obtained with confocal microscopy, the same samples were analyzed using scanning electron microscopy (SEM; FIG. 13P-S). […] Smaller outer membrane vesicles of approximately 20 to 70 nm were also observed covering the surface of the bacteria. […] These conclusions were further supported by measuring the crystal violet uptake and leakage of materials assessed at 260 nm after 1 hr of treatment with a lethal dose of SMs.

S. typhimurium WT [3] = assay: MIC and MBC dose-response, serotype Typhimurium; type: cell-based, Salmonella enterica subsp. enterica serovar Typhimurium LT2; conditions: for MIC/MBC: Salmonella serotype Typhimurium, MIC identical to MBC
Method: as §1, §2

Salmonella Saint-Paul = assay: MIC and MBC dose-response, serotype Saint-Paul; type: cell-based; conditions: MIC identical to MBC
Method: as §1, §2

S. typhimurium WT [4] = assay: High-throughput primary screen for S. typhimurium growth inhibitors at 200 μM; type: cell-based, Salmonella enterica subsp. enterica serovar Typhimurium LT2; conditions: adjusted M9 minimal broth, 12 hrs, 37° C., bactericidal = 100% growth inhibition and no growth on XLT4 agar, bacteriostatic = 100% growth inhibition but growth on XLT4 agar
Method: Identification of S. typhimurium growth inhibitors: The 4182 small molecules (SMs) were screened at 200 μM against S. typhimurium WT using HTS assay in a 96-well plate format. An overnight Salmonella suspension was normalized at 0.05 OD600 (approximately 3.5×10^7 CFU/ml) with an adjusted M9 minimal broth medium (12.7 mM Na2HPO4 7H2O; 22 mM KH2PO4; 18.7 mM NH4Cl; 2 mM MgSO4; 0.1 mM CaCl2; 0.4% glucose; 0.05% casamino acids). 100 μL of the suspension plus 2 μl of SMs (200 μM) were transferred into each well of a sterile, non-treated, flat bottom 96-well plate. Bacteria alone (negative control, NC), 2% DMSO plus bacteria (DMSO control), 20 μg/ml chloramphenicol or 50 μg/ml kanamycin plus bacteria (positive controls, PC), and M9 medium only were used as control. Plates were incubated in a Sunrise™ Tecan kinetic microplate reader for 12 hrs at 37° C. and the optical density (OD) was measure at 600 nm as described above. Percentage of inhibition=[…]. SMs were identified as growth inhibitors if their inhibition value after incubation was above 20% (value representing the inhibition level monitored with the DMSO controls). Cultures from wells showing no turbidimetric increase were transferred onto a XLT4 agar plate. Plates were incubated at 37° C. for 36 hrs.

Salmonella Muenchen = assay: MIC and MBC dose-response, serotype Muenchen; type: cell-based, Salmonella enterica; conditions: MIC identical to MBC
Method: as §1, §2

M. gallisepticum = assay: Activity on avian pathogens at 200 μM, M. gallisepticum; type: cell-based, Mycoplasma gallisepticum
Method: FIGS. 1(A-E). Selection of potent Salmonella growth inhibitors. FIG. 1A: High-throughput screening of 4182 SMs against S. typhimurium WT at 200 μM. Negative value: growth inhibition; Positive value: growth stimulation compared to S. typhimurium growth not treated. The black line represents growth inhibition caused by 2% DMSO. FIG. 1B: Activity of 19 S. typhimurium growth inhibitors against additional Salmonella serotypes. Light grey cells: total growth inhibition; dark grey cells: bacterial growth observed; black cells: not determined. FIG. 1C: Dose-response assays of the selected 19 SMs against S. typhimurium WT. […] The black line represents a cut off of nine serotypes killed per SM. FIG. 1E: Activity spectra of the selected four SMs at 200 μM each on several avian-pathogens (Campylobacter jejuni, Escherichia coli APEC, and Mycoplasma gallisepticum) and beneficial gut bacteria (remaining species). E. coli APEC refers to Avian Pathogenic E. coli and includes E. coli O1, O2, O8, O15, O18, O35, O78, O109, and O115. Light grey cells: cidal effect; dark grey cells: bacterial growth observed. Left side: phylogenetic tree based on NCBI taxonomic ID built with PhyloT software.
The selected four SMs were tested on twelve beneficial-commensal gut bacteria at 200 μM (FIG. 1E). […] These four SMs were also growth inhibitors of other avian pathogens at 200 μM (unpublished data, FIG. 1E). […] The antimicrobial activity seemed not to be influenced by the taxonomic classification, however the SM5 bacterial target may be less present in prokaryotes than the drug target of the other three SMs.

Structure (SMILES) | FM4-64 cell membrane staining phenotype [1] | MIC/MBC (Salmonella Javiana) [µM] | increase in 260 nm-absorbing material [2] [fold] | MIC/MBC (S. typhimurium WT [3]) [µM] | MIC/MBC (Salmonella Saint-Paul) [µM] | Effect on S. Typhimurium at 200 μM (S. typhimurium WT [4]) | MIC/MBC (Salmonella Muenchen) [µM] | effect against M. gallisepticum (M. gallisepticum) | MBC (S. typhimurium WT [3]; Salmonella enterica, TYPHIMURIUM, read-out: MBCAlone of SM) [µM]
CC1CCC(C(C)C)C(OC(=O)Cn2c[n+](CC(=O)OC3CC(C)CCC3C(C)C)c3ccccc32)C1.[Cl-] (centres unmarked) [SM1, 1,3-bis{2-[(2-isopropyl-5-methylcyclohexyl)oxy]-2-oxoethyl}-1H-3,1-benzimidazol-3-ium chloride] | No signal was detected | 100 | 2.18 | 50 | 100 | Bactericidal | 100 | – | –
CCCCCCCCCCCCCCCC[n+]1ccn(CC#N)c1.[Cl-] [SM3, 1-(cyanomethyl)-3-hexadecyl-1H-imidazol-3-ium chloride] | No signal was detected | 25 | 7.17 | 25 | 50 | Bactericidal | 50 | killed | –
CCCCCCCCCCCCCCCCn1c[n+](C)c2ccccc21.[Br-] [SM4, 1-hexadecyl-3-methyl-1H-3,1-benzimidazol-3-ium bromide] | No signal was detected | 10 | 15.95 | 10 | 10 | Bactericidal | 25 | killed | –
CCOc1cc(/C=N/N=C(N)N)ccc1OCc1ccc(Cl)cc1 [SM5, N″-{4-[(4-chlorobenzyl)oxy]-3-ethoxybenzylidene}carbonohydrazonic diamide] | stained cell membrane; however, a bright red spot was detected within every bacterium | 50 (≈ 17.3 µg/mL) | 5.25 | 25 (≈ 8.67 µg/mL) | 50 (≈ 17.3 µg/mL) | Bactericidal | 50 (≈ 17.3 µg/mL) | killed | 25 (≈ 8.67 µg/mL)
